According to patent US20060233877A1, “Betaine compositions” (priority 2002, published 2006):
“And” between values parts separate entries of the source, which are not always exact repeats. Identical values can stand only once.

What was measured:
[1] = tested on: laser-induced thrombosis in the mesenteric microcirculation of the rat; test: Laser-induced thrombosis; assay type: in vivo, Rats Wistar; conditions: for Duration of embolisation / Number of emboli: ASA 50 mg/kg s.c.
Description: Principle of Laser-Induced Thrombosis ([…]. et al., 1989; […]. et al., 1983) In this model, lesion of the vascular wall is induced by a laser beam. This beam causes a limited lesion of the vascular endothelium (only 1 to 2 cells are destroyed). This laying bare of the sub-endothelium, which is a thrombogenetic surface, results in the adherence of platelets via glycoproteins. This adherence of platelets is followed by their activation, they form pseudopods and secrete the content of their granules. This activation results in the appearance of glycoprotein binding sites which are necessary for the aggregation of the platelets between them and for platelet adhesion to the thrombogenic surfaces. This lesion is induced in the mesenteric microcirculation of the rat. It is immediately followed by the formation of a thrombus (in a few seconds). This thrombus, which rapidly enlarges under the influence of the blood flow, embolises before being formed again. The substances were subcutaneously injected 1 hour before the tests.

[2] = tested on: platelet aggregation induced by ADP; test: Aggregation tests (whole blood aggregometry, ADP 5 μM) after subcutaneous dosing; assay type: in vivo, Rats Wistar
[3] = tested on: platelet adhesion and thrombus formation on collagen coated surface; test: Parallel plate chamber: platelet adhesion and thrombus formation on collagen coated surface at 60 dynes/cm^2; assay type: cell-based, human
Description: The synergistic effect of asa/betaine on platelet adhesion is studied by perfusing blood on thrombogenic surface such as collagen under shear stress conditions.
Effect of betaine, aspirin or betaine/aspirin combination on platelet adhesion and thrombus formation on collagen coated surface.
We studied the effect of asafbetaine on platelet adhesion and thrombus formation under laminar flow at high shear stress (60 dynes/cm^2) on a collagen coated surface. This high shear stress mimics stenosed arteries. The blood of four fastened healthy subjects was sampled on day 1 as to determine basal values and betaine effect when added in vitro (table1), then the subjects were orally administrated a daily oral bolus dose of 350 mg of ASA during 3 days and their blood sampled on day 3 as to determine ASA effect and ASA+betaine effect when betaine is added in vitro to aspirinized blood at different concentrations (table2).
Citrated human aspirinized blood was pre-labelled with mepacrine and exposed to vehicle alone or betaine (20, 40, and 80 μg/ml) for 20 minutes before perfusion.
The effect of asa/betaine has been evaluated by performing experiments 60 dynes/cm^2 witch mimics arterial thrombosis. Before perfusion citrated whole blood was incubated with saline alone or betaine at concentration of 20, 40, and 80 μg/ml for 20 minutes and then perfused on collagen at 60 dynes/cm^2 At the end of 2 minutes of perfusion, cells were fixed and the area covered by thrombi was calculated by analysis of fluorescent thrombus images acquired by confocal microscopy.
Collagen coated slides. Glass slides were with collagen (200 μg/ml; equine collagen), placed for 1 hour in a water bath at 37° C., and the collagen gel allowed to evaporate for 30 minutes under a ventilated hood. Perfusion with citrated whole blood was started and continued for 2 minutes, then blood was withdrawn from the circuit, and platelet thrombi adherent to the collagen coated surface were fixed and stained with May Grunwald-Giemsa.
Images of platelet thrombi were digitised using a light microscope connected to a computer-based image analysis system. The surface occupied by thrombi and mean thrombus area were evaluated by automatic edge detection using built-in specific functions of a software image.
Platelet adhesion and thrombus formation. Platelet adhesion assay was performed according to the described previously (Alevriadou et al., 1993; Boccardo et al., 1997) with minor modifications. Blood collected on citrate (3,8%) was perfused through a flow chamber using a syringe pump. A flow chamber thermostatized to 37° C. was used in which one surface of the perfusion channel is a glass slide coated with equine collagen.
Flow chamber. The chamber dimensions (30 mm long, 1 mm large, and 150 μm in the thickness) allow to obtain a wide range of shear rate low flow rates of blood.
Citrated whole blood was incubated with the fluorescent dye mepacrine 10 μM (quinacrine dihydrochloride BP; Sigma Chemical, St Louis. MO). Mepacrine concentrated in the dense granules of platelets and in the granules of leukocytes and, at this concentration has no effect on normal platelet function (3). Any fluorescence within the erythrocytes is quenched by haemoglobin. Blood was pre-incubated 5 minutes at 37° C. before perfusion. The system was filled with PBS pH 7.3, then perfusion with blood was started and maintained at the constant flow rate of 1500 sec^−1 (corresponding to a shear stress of 60 dynes/cm^2). After 2 min, perfusion was stopped and the slide with the collagen monolayer was dehydrated and fixed in acetone for 20 minutes.
Images of platelet thrombi on collagen surface were acquired by a confocal inverted laser microscope. The surface occupied by thrombi was evaluated by automatic edge detection using built-in specific functions of a software image.

[4] = cited from earlier work
[5] = Solubility in water / concentrated betaine solution; assay type: physicochemical
[6] = experiment A, ASA 100 mg/kg s.c.
[7] = experiment A, ASA 100 mg/kg s.c., mean
[8] = experiment B, ASA 50 mg/kg s.c.
[9] = experiment B, ASA 50 mg/kg s.c., mean

SMILES: CC(=O)Oc1ccccc1C(=O)O [ASA, acetylsalicylic acid]
- Number of laser shoots ([1]; experiment A, ASA 100 mg/kg s.c. 1 hour before, rats 1-5 and mean): 4 and 3
- Number of laser shoots ([1]; experiment A, ASA 100 mg/kg s.c. 1 hour before, rats 1-5 and mean, mean): 3.2 ± 0.45
- Duration of embolisation ([1]; experiment B): 4 min and 3 min and 2 min
- Number of emboli ([1]; experiment B): 3 and 4
- Number of laser shoots ([1]; experiment B, ASA 50 mg/kg s.c. 1 hour before, n=6 rats and mean): 2 and 3
- Number of laser shoots ([1]; experiment B, ASA 50 mg/kg s.c. 1 hour before, n=6 rats and mean, mean): 2.33
- Duration of embolisation ([1]; experiment B, mean): 2.5 min
- Number of emboli ([1]; experiment B, mean): 3.33
- Number laser shoots ([1]; experiment C, ASA 100 mg/kg s.c. 1 hour before, 6 rats and mean): 4 and 3 and 2
- Amplitude [2, 6]: 2 ohm and 3 ohm and 4 ohm
- velocity [2, 6]: 4 ohm/min and 3 ohm/min and 5 ohm/min
- Amplitude [2, 7]: 2.6 ± 0.89 ohm
- velocity [2, 7]: 3.8 ± 0.84 ohm/min
- Amplitude [2, 8]: 8 Ohm and 9 Ohm and 10 Ohm and 7 Ohm
- velocity [2, 8]: 7 Ohm/min and 8 Ohm/min and 9 Ohm/min and 6 Ohm/min
- Amplitude [2, 9]: 8.5 Ohm
- velocity [2, 9]: 7.33 Ohm/min
- area covered by thrombi ([3]; aspirinized blood (350 mg ASA oral daily, 3 days) + saline): 72856 pixels/field and 121321 pixels/field and 132458 pixels/field and 122652 pixels/field
- solubility in water [4]: about 0.3%

SMILES: C[N+](C)(C)CC(=O)O [betaine, Betaine monohydrate]
- area covered by thrombi ([3]; betaine 20 μg/ml in vitro, 20 minutes, subjects 1-4 and mean, monohydrate): 88746 pixels/field and 135241 pixels/field and 122369 pixels/field and 154425 pixels/field
- area covered by thrombi ([3]; betaine 40 μg/ml in vitro, 20 minutes, monohydrate): 66852 pixels/field and 92433 pixels/field and 89628 pixels/field and 95645 pixels/field
- area covered by thrombi ([3]; betaine 80 μg/ml in vitro, 20 minutes, monohydrate): 57544 pixels/field and 81585 pixels/field and 76654 pixels/field and 82579 pixels/field
- reduction in platelet deposition in respect to vehicle ([3]; betaine 80 μg/ml, Table 1): −49%
- effect on platelet deposition and thrombus formation ([3]; high shear stress, versus vehicle-treated blood): significantly inhibit platelet deposition and consequent thrombus formation

SMILES: O=C(O)c1ccccc1O [salicylic acid]
- amount that can be dissolved ([5]; cold concentrated betaine solution): Up to 5%
- amount dissolved relative to pure water ([5]; cold concentrated betaine solution vs pure water): 15 times
